Assay results: patent publication US9051317B2, “Azaindoles as respiratory syncytial virus antiviral agents” (JANSSEN SCIENCES IRELAND UC, priority 2010, dated 2015)
Read-outs that look alike come from different tables or passages of the source.

Columns and labels:
rgRSV224 virus = assay: microbe, parasite or virus in culture; assay type: cell-based, respiratory syncytial virus (RSV); conditions: for EC50: read-out: WT activity EC50; for SI CC50/EC50: selectivity index, CC50 (HeLa cytotoxicity) / EC50 (rgRSV224)
Description: (§1) Black 96-well clear-bottom microtiter plates (Corning, Amsterdam, The Netherlands) were filled in duplicate using a customized robot system with serial 4-fold dilutions of compound in a final volume of 50 μl culture medium [RPMI medium without phenol red, 10% FBS, 0.04% gentamycin (50 mg/mL) and 0.5% DMSO]. Then, 100 μl of a HeLa cell suspension (5×10^4 cells/mL) in culture medium was added to each well followed by the addition of 50 μl rgRSV224 (MOI=0.02) virus in culture medium using a multidrop dispenser (Thermo Scientific, Erembodegem, Belgium). rgRSV224 virus is an engineered virus that includes an additional GFP gene (Hallak et al, 2000) and was in-licensed from the NIH (Bethesda, Md., USA). Medium, virus- and mock-infected controls were included in each test. Cells were incubated at 37° C. in a 5% CO2 atmosphere. Three days post-virus exposure, viral replication was quantified by measuring GFP expression in the cells by a MSM laser microscope (Tibotec, Beerse, Belgium). The EC50 was defined as the 50% inhibitory concentration for GFP expression. In parallel, compounds were incubated for three days in a set of white 96-well microtitier plates (Corning) and the cytotoxicity of compounds in HeLa cells was determined by measuring the ATP content of the cells using the ATPlite kit (PerkinElmer, Zaventem, Belgium) according to the manufacturer's instructions. The CC50 was defined as the 50% concentration for cytotoxicity.

[1] = Cytotoxicity in HeLa cells, ATP content (ATPlite kit); assay type: cell-based; conditions: human, Table 1, three days incubation, read-out: Toxicity CC50
Description: as §1

[2] = Table 2, rgRSV224 in HeLa cells, MOI 0.02, three days post-virus exposure, GFP expression
[3] = human respiratory syncytial virus, HeLa, 72 h

| Structure (SMILES) | EC50 (rgRSV224 virus; [2]) [nM] | SI CC50/EC50 (rgRSV224 virus; Table 2) | EC50 (rgRSV224 virus; [3]) [nM] | CC50 at 3 days [1] [nM] | SI CC50/EC50 (rgRSV224 virus; Table 3) |
| --- | --- | --- | --- | --- | --- |
| N#CCCCn1c(Cn2c(=O)n(C3CC3)c3ccncc32)cc2nc(Cl)ccc21 [Compound P53] | 15.8 | >6232 | – | – | – |
| O=c1n(Cc2cc3nc(Cl)ccc3n2CCCCF)c2cnccc2n1C1CC1 [Compound P42, 3-((5-chloro-1-(4-fluorobutyl)-1H-pyrrolo[3,2-b]pyridin-2-yl)methyl)-1-cyclopropyl-1H-imidazo[4,5-c]pyridin-2(3H)-one] | – | 17031 | 2.84 | – | – |
| O=c1n(Cc2cc3nc(Cl)ccc3n2CCCC(F)(F)F)c2ccccc2n1C1CC1 [Compound P43] | 69.2 | 1291 | – | – | – |
| O=c1n(Cc2cc3nc(Cl)ccc3n2CCCCF)c2cc(F)ccc2n1CC(F)(F)F [Compound P47] | 138 | >720 | – | – | – |
| CC(C)CCn1c(Cn2c(=O)n(C3CC3)c3ccncc32)cc2ncccc21 [Compound P3, 1-Cyclopropyl-3-{[1-(3-methylbutyl)-1H-pyrrolo[3,2-b]pyridin-2-yl]methyl}-1,3-dihydro-2H-imidazo[4,5-c]pyridin-2-one] | – | – | 62.9 | 68000 | – |
| O=c1n(Cc2cc3cnccc3n2CCCCF)c2cnccc2n1C1CC1 [Compound P19] | 0.536 | >186574 | – | – | – |
| CC(C)(C)C(=O)OCCCCn1c(Cn2c(=O)n(C3CC3)c3ccncc32)cc2nc(O)ccc21 [Compound P9, 4-{2-[(1-Cyclopropyl-2-oxo-1,2-dihydro-3H-imidazo[4,5-c]pyridin-3-yl)methyl]-5-hydroxy-1H-pyrrolo[3,2-b]pyridin-1-yl}butyl 2,2-dimethylpropanoate] | – | – | > 9840 | > 9840 | – |
| COc1ccc2c(cc(Cn3c(=O)n(C4CC4)c4ccncc43)n2CCCCO)n1 [Compound P6, 1-Cyclopropyl-3-{[1-(4-hydroxybutyl)-5-methoxy-1H-pyrrolo[3,2-b]pyridin-2-yl]methyl}-1,3-dihydro-2H-imidazo[4,5-c]pyridin-2-one] | – | – | 220 | > 9840 | – |
| O=c1n(Cc2cc3cc(Cl)ncc3n2CCCC(F)(F)F)c2cc(F)ccc2n1CC(F)(F)F [Compound P14] | 17.2 | >5823 | – | – | – |
| CS(=O)(=O)CCCn1c(Cn2c(=O)n(C3CC3)c3ccncc32)cc2nc(Cl)ccc21 [Compound P33] | 5.76 | >17372 | – | – | – |
| CS(=O)(=O)CCCn1c(Cn2c(=O)n(C3COC3)c3ccncc32)cc2nc(Cl)ccc21 [Compound P36] | 6.81 | >14674 | – | – | – |
| O=c1n(Cc2cc3cnccc3n2CCCC(F)(F)F)c2c(F)nccc2n1C1CC1 [Compound P24] | – | – | 0.17 | – | >589061 |
| CC(C)CCn1c(Cn2c(=O)n(C3COC3)c3ccncc32)cc2nc(Cl)ccc21 [Compound P34] | 35 | >2856 | – | – | – |
| CS(=O)(=O)CCCn1c(Cn2c(=O)n(C3CC3)c3ccncc32)cc2cnccc21 [Compound P18] | 0.98 | >102089 | – | – | – |
| O=c1n(Cc2cc3nc(C(F)(F)F)ccc3n2CCCCF)c2cnccc2n1C1CC1 [Compound P46] | 132 | >755 | – | – | – |
| Cc1c(Cn2c(=O)n(C3CC3)c3ccncc32)n(CCCC(F)(F)F)c2ccncc12 [Compound P25] | 1.35 | >73885 | – | – | – |
| CS(=O)(=O)CCCn1c(Cn2c(=O)n(CC(F)(F)F)c3ccncc32)cc2nc(Cl)ccc21 [Compound P52] | 0.84 | >119028 | – | – | – |
| CS(=O)(=O)CCCn1c(Cn2c(=O)n(C3CC3)c3ccc(F)cc32)cc2nc(Cl)ccc21 [Compound P37] | 22.3 | >4479 | – | – | – |
| O=c1n(Cc2cc3ncccc3n2CCCCF)c2cnccc2n1C1CC1 [Compound P45] | 42.9 | >2332 | – | – | – |
| O=c1n(Cc2cc3nc(Cl)ccc3n2CCCC(F)(F)F)c2cnccc2n1CC(F)(F)F [Compound P49] | 2.1 | >34306 | – | – | – |
| O=c1n(Cc2cc3cc(Cl)ncc3n2CCCCF)c2cnccc2n1CC(F)(F)F [Compound P15] | 1.58 | 51626 | – | – | – |

| Structure (SMILES) | EC50 (rgRSV224 virus; [2]) [nM] | SI CC50/EC50 (rgRSV224 virus; Table 2) | EC50 (rgRSV224 virus; [3]) [nM] | CC50 at 3 days [1] [nM] | SI CC50/EC50 (rgRSV224 virus; Table 3) |
| --- | --- | --- | --- | --- | --- |
| CC(C)CCn1c(Cn2c(=O)n(C3CC3)c3ccccc32)cc2nc(Cl)ccc21 [Compound P39] | 129 | >388 | – | – | – |
| O=c1n(Cc2cc3ccncc3n2CCCCO)c2cnccc2n1C1CC1 [Compound P4, 1-Cyclopropyl-3-{[1-(4-hydroxybutyl)-1H-pyrrolo[2,3-c]pyridin-2-yl]methyl}-1,3-dihydro-2H-imidazo[4,5-c]pyridin-2-one] | – | – | 129 | > 9840 | – |
| O=c1n(Cc2c(Cl)c3cnccc3n2CCCC(F)(F)F)c2cnccc2n1C1CC1 [Compound P22] | 5 | >20007 | – | – | – |
| CS(=O)(=O)CCCn1c(Cn2c(=O)n(CC(F)(F)F)c3ccc(F)cc32)cc2cnccc21 [Compound P30] | 0.614 | >162986 | – | – | – |
| O=c1n(Cc2cc3nc(Cl)ccc3n2CCCCF)c2cnccc2n1CC(F)(F)F [Compound P48] | 7.36 | 10490 | – | – | – |
| O=c1n(Cc2cc3nc(Cl)ccc3n2CCCCO)c2cnccc2n1C1CC1 [Compound P2, 3-{[5-Chloro-1-(4-hydroxybutyl)-1H-pyrrolo[3,2-b]pyridin-2-yl]methyl}-1-cyclopropyl-1,3-dihydro-2H-imidazo[4,5-c]pyridin-2-one] | – | – | 15.6 | > 9840 | – |
| CS(=O)(=O)CCCn1c(Cn2c(=O)n(CC(F)(F)F)c3ccc(F)cc32)c(Br)c2cnccc21 [Compound P29] | 63.5 | 307 | – | – | – |
| O=c1n(Cc2cc3nc(Cl)ccc3n2CCCC(F)(F)F)c2cnccc2n1C1CC1 [Compound P40] | 2.7 | >37045 | – | – | – |
| O=c1n(Cc2cc3cc(Cl)ncc3n2CCCC(F)(F)F)c2cnccc2n1CC(F)(F)F [Compound P13] | 0.938 | >106591 | – | – | – |
| O=c1n(Cc2cc3cnccc3n2CCCC(F)(F)F)c2cnccc2n1C1CC1 [Compound P21] | 0.247 | >405210 | – | – | – |
| O=c1n(Cc2cc3nc(Cl)ccc3n2CCCCO)c2cnccc2n1CC(F)(F)F [Compound P50] | 10.1 | >4946 | – | – | – |
| CC(C)CCn1c(Cn2c(=O)n(C3CC3)c3ccncc32)cc2cnccc21 [Compound P20] | 0.28 | 294002 | – | – | – |
| O=c1n(Cc2cc3cc(Cl)ncc3n2CCCC(F)(F)F)c2cc(F)ccc2n1C1CC1 [Compound P16] | 39.8 | >2730 | – | – | – |
| O=c1n(Cc2c(I)c3cnccc3n2CCCC(F)(F)F)c2cnccc2n1C1CC1 [Compound P26] | 2.35 | 21638 | – | – | – |
| CC(C)CCn1c(Cn2c(=O)n(C3CC3)c3ccc(F)cc32)cc2nc(Cl)ccc21 [Compound P38] | 32.8 | 1510 | – | – | – |
| CC(C)CCn1c(Cn2c(=O)n(C3CC3)c3ccncc32)cc2nc(Cl)ccc21 [Compound P32] | 7.77 | >1286 | – | – | – |
| O=c1n(Cc2cc3cc(Cl)ncc3n2CCCC(F)(F)F)c2cnccc2n1C1CC1 [Compound P12] | 2.38 | >10526 | – | – | – |
| O=c1n(Cc2c(F)c3cnccc3n2CCCC(F)(F)F)c2cnccc2n1C1CC1 [Compound P23] | 29.3 | >3416 | – | – | – |
| O=c1n(Cc2cc3nc(Cl)ccc3n2CCCCF)c2cnc(Cl)cc2n1C1CC1 [Compound P44] | – | – | 17.9 | – | 620 |
| O=c1n(Cc2cc3cc(Cl)ncc3n2CCCCF)c2cnccc2n1C1CC1 [Compound P11, 3-((5-chloro-1-(4-fluorobutyl)-1H-pyrrolo[2,3-c]pyridin-2-yl)methyl)-1-cyclopropyl-1H-imidazo[4,5-c]pyridin-2(3H)-one] | – | >9387 | 5.33 | – | – |
